Results: ChEMBL document CHEMBL1129151, “Stereoselective synthesis of lewis-associated trisaccharides as E-selectin inhibitors” (Bioorg Med Chem Lett, 1996)

What was measured:
Mus musculus = test: In vivo ability to inhibit lipoteichoic acid (LTA)-induced neutrophil accumulation in murine pleurisy model at a dose of 30 mg/kg upon iv administration; format: functional; details: for inhibition in vivo at 30 mg/kg: Mus musculus, iv; for Inhibition: 30 mg/kg
E-selectin = target: T1, E-selectin (Homo sapiens, UniProt P16581); test: In vitro ability to inhibit the adhesion of HL-60 cells to purified recombinant human Selectin E; format: cell-based
T1 sequence (P16581 whole entry): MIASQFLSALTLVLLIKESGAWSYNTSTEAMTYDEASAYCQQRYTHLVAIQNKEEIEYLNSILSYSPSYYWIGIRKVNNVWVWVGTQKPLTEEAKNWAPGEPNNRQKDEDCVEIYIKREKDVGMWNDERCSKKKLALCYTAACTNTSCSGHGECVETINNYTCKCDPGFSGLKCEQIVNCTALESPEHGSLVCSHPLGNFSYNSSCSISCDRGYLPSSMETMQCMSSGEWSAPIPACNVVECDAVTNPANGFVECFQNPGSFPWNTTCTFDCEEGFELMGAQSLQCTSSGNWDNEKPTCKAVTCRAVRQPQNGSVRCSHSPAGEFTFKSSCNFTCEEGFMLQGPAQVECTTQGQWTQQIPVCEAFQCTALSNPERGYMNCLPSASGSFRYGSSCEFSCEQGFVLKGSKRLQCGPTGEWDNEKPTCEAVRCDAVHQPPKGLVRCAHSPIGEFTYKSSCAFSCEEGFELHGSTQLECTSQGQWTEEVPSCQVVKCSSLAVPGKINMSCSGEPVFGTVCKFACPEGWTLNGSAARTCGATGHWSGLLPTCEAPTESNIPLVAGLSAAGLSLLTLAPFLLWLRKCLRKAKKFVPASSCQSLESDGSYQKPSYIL

| SMILES | IC50 (E-selectin) [mM] | inhibition in vivo at 30 mg/kg (Mus musculus) [%] | Inhibition (Mus musculus) [%] |
| --- | --- | --- | --- |
| CCO[C@@H]1O[C@@H](CO)[C@@H](O[C@@H]2O[C@@H](CO)[C@H](O)C(O)[C@@H]2O)C(O[C@@H]2O[C@@H](C)[C@@H](O)[C@H](O)[C@@H]2O)[C@@H]1NC(=O)c1ccc2ccccc2c1 (single isomer, unassigned) | > 6.6 | 3 | – |
| CCO[C@@H]1O[C@@H](CO)[C@@H](O[C@@H]2O[C@@H](CO)[C@H](O)C(O)[C@@H]2O)C(O[C@@H]2O[C@@H](C)[C@@H](O)[C@H](O)[C@@H]2O)[C@@H]1NC(C)=O (single isomer, unassigned) | > 6.6 | 31 | – |
| CCO[C@@H]1O[C@@H](CO)[C@@H](O[C@@H]2O[C@H](C)[C@H](O)[C@H](O)[C@@H]2O)[C@H](O[C@@H]2O[C@@H](CO)[C@H](O)[C@H](O)[C@@H]2O)[C@@H]1NC(C)=O (stereo in doubt; 1) | > 6.6 | – | 37 |
| CCO[C@@H]1O[C@@H](CO)[C@@H](O[C@@H]2O[C@H](C)[C@H](O)[C@H](O)[C@@H]2O)[C@H](O[C@@H]2O[C@@H](CO)[C@H](O)[C@H](O)[C@@H]2O)[C@@H]1NC(C)=O (stereo in doubt; 3) | 1.4 | 51 | – |

More lines, main results first:

| IC50 (E-selectin) [mM] | SMILES | inhibition in vivo at 30 mg/kg (Mus musculus) [%] | Inhibition (Mus musculus) [%] |
| --- | --- | --- | --- |
| > 6.6 | CCO[C@@H]1O[C@@H](CO)[C@@H](O[C@@H]2O[C@@H](C)[C@H](O)[C@H](O)[C@@H]2O)[C@H](O[C@@H]2O[C@@H](CO)[C@H](O)[C@H](O)[C@@H]2O)[C@@H]1NC(=O)c1ccc2ccccc2c1 (stereo in doubt; 2) | 49 | – |
| 2 | CCO[C@@H]1O[C@@H](CO)[C@@H](O[C@@H]2O[C@@H](C)[C@H](O)[C@H](O)[C@@H]2O)[C@H](O[C@@H]2O[C@@H](CO)[C@H](O)[C@H](O)[C@@H]2O)[C@@H]1NC(=O)c1ccc2ccccc2c1 (stereo in doubt; 4) | – | 62 |
